The subject of test [1] is microorganisms present in the sample (Monarch coal seam coal and formation water). Nature of the test: Biogenic methane generation from Monarch coal samples with hydrogen, phosphorous compound and ammonia amendments. Conditions: different coal and formation water sample; no ammonium and phosphate amendment.
Protocol: Experiments were conducted to compare biogenic methane generation from coal samples after introducing an amendment of hydrogen gas, a phosphorous compound, and ammonia. For each experiment, methane generation from coal samples from the Monarch coal seam in the Powder River Basin in Wyoming was periodically measured over the course of about 627 days. Each anaerobic 5 gram coal sample was placed in a nominal 36.5 ml serum bottle with 15 mL of anaerobic water that was also taken from the formation. The coal and formation water were placed in the serum bottle while working in an anaerobic glove bag. The headspace in the bottle above the sample was flushed with a mixture of N2 and CO2 (95/5).
The methane levels in the headspace above the samples was periodically measured and recorded. The methane was measured by running samples of the headspace gases through a gas chromatograph equipped with a thermal conductivity detector.
The test system of test [2] is microorganism consortia in coal samples.
Description: Rollover is a condition where the rate of biogenic methane production starts to plateau as the in situ methane concentration reaches a certain level. In many instances, the rate flattens to zero, and the methane concentration remains constant over time. The rollover point (i.e., the point where the methane concentration begins to break from a monotonically increasing state) can vary between microorganism consortia, but appears to be reached in almost all unamended samples of carbonaceous material that have been examined to date.
Test [3] concerns coal formation in Wyoming's Powder River Basin. How it is done:
FIGS. 14A-B show graphs of measurements of methane gas production over time from a coal formation in Wyoming's Powder River Basin before and after an amendment of phosphate and filtered water was introduced to the formation.
The gas well was then treated with an amendment of phosphate and filtered water for about 1.2 months (i.e., late August to early October). The amendment included the introduction of an aqueous solution of 9.5×10^−5 M potassium phosphate to an underground natural gas formation at a rate of about 14,400 L/day for each day of the treatment period. Following the treatment period with the phosphorous amendment, the gas well was sealed for a period of about 2 months (i.e., early October to early December) before the measurements of gas were measured during the post-amendment period (the dwell period).
Then the same phosphorous amendment as described for FIG. 14A was added to the formation for a 1.2 month period (i.e., late August to early October) followed by an approximately 2 month dwell period.

The subject of test [4] is methanogenesis in Powder River Basin coal and formation water. Nature of the test: Single and multiple nutrient amendments, Powder River Basin coal (FIG. 9). Conditions: phosphate 5 mg/L, yeast extract about 500 mg/L, BESA about 10 mM. It counts as cell-based.
Protocol: Two comparative groups were also measured: (1) Samples of the Power River Basin coal to which no amendments were added (unamended), and (2) Samples of the PRB coal to which bromoethanesulfonic acid (BESA), a known methanogen-specific inhibitor, was added.
The headspace in the bottle above the sample was exchanged with helium.
The amendments were added to the sample bottles until a target concentration of the amendment was reached. […] For the yeast extract only amended, Difco® yeast extract from Becton Dickinson and Company was added to the sample bottles until a concentration of about 500 mg/L was reached.
Finally, for the samples used in the comparative example where methane production from methanogenesis was inhibited, BESA was added to the sample bottles until it reached a concentration of about 10 mM.
Methane production from the samples were measured and plotted as the percentage of methane in the headspace above the liquid in the serum bottle. Three sample bottles were prepared for each amendment, and the methane concentrations were measured in triplicate and averaged.
Test [5] relates to microorganisms in Monarch coal, formation water and cell concentrate. Conditions: 18.0 mM acetate. How it is done: Experiments were conducted to measure the effects of acetate amendments on methane production from samples of carbonaceous materials. The carbonaceous materials used in these experiments were coal samples taken from underground coal beds at the Monarch coal site. […] The cell concentrate consisted of cells from about 6.6 L of formation water added to 15 mL of formation water.
In a first set of samples, the acetate amendment included adding an aqueous sodium acetate solution to the sample bottles to give the samples an 18.0 mM acetate concentration (an average measured concentration). A second set of control samples were prepared in the same manner except for lacking the acetate amendment. Methane levels (measured as a mol. % methane in the headspace of the sample bottle) were periodically measured in both the amendment and control samples over the course of 90 days.

Test [6] concerns methanogenesis in produced water and oil. Put plainly: Phosphorous compound amendments in oil samples, field in Texas (FIG. 10). It counts as cell-based. Conditions: 45° C., 14 days, oil from Texas field. On the procedure:
Produced water and oil samples were collected directly from well heads after passing produced fluids through a portable anaerobic and disinfected oil-water separator. Strict anoxic techniques were used. The water samples were maintained at field temperature prior to use in experiments. Twenty mls of produced water and 0.1 ml of oil were distributed into sterile 36.5 ml serum bottles contained within a disinfected anaerobic glove bag. The anaerobic glove bag contained a filtration apparatus for removing airborne microbial contaminants. […] Incubation temperature was 45° C., the approximate in-situ temperature. Incubation period prior to headspace gas analysis was 14 days. The samples were prepared with the following amendments: […] Final bottle concentration −0.5 mg/L as Phosphorous; (2) Minerals (100× less the stock concentration in Table 2); (3) Metals (300× less the stock concentration in Table 1); (4) Minerals+Metals+Yeast extract (25 mg/L); (5) Minerals+Metals+Vitamins (100× less the stock concentration in appendix 1)+Yeast extract (25 mg/L). In addition, two comparative experiments were run for: […] The experimental bottles were placed into a heated water bath maintained at the field temperature during gas analysis to avoid temperature fluctuations. […] The methane measurements, expressed as the percentage of methane in the headspace above the sample bottles, were plotted in FIG. 10.

Test [7] has as its system methanogenesis and acetate production in produced water and oil. Put plainly: Phosphorous compound amendments in oil samples, field in Montana (FIGS. 11A-B). In kind it is cell-based. The settings on record: oil from Montana field. On the procedure: Produced water and oil samples were collected directly from well heads after passing produced fluids through a portable anaerobic and disinfected oil-water separator. Strict anoxic techniques were used. The water samples were maintained at field temperature prior to use in experiments.
Twenty mls of produced water and 0.1 ml of oil were distributed into sterile 36.5 ml serum bottles contained within a disinfected anaerobic glove bag. The anaerobic glove bag contained a filtration apparatus for removing airborne microbial contaminants. […] Incubation temperature was 45° C., the approximate in-situ temperature. Incubation period prior to headspace gas analysis was 14 days. The samples were prepared with the following amendments: (1) Sodium phosphate. Final bottle concentration −0.5 mg/L as Phosphorous; (2) Minerals (100× less the stock concentration in Table 2); (3) Metals (300× less the stock concentration in Table 1); (4) Minerals+Metals+Yeast extract (25 mg/L); (5) Minerals+Metals+Vitamins (100× less the stock concentration in appendix 1)+Yeast extract (25 mg/L). […]
The experimental bottles were placed into a heated water bath maintained at the field temperature during gas analysis to avoid temperature fluctuations. […] The methane measurements, expressed as the percentage of methane in the headspace above the sample bottles, were plotted in FIG. 10. […]

The next test deals with methanogenic consortia. Put plainly: Enrichment transfer of methanogenic consortia on coal (FIG. 13). It counts as cell-based. On the procedure:
With the discovery that methanogenic consortia are commonly present in formation waters, a significant research effort, both laboratory and field oriented, was directed at identify methodologies for enhancing their activities in-situ. To this end, methanogenic consortia capable of rapid methanogenesis on coal from the Powder River Basin have been obtained using an enrichment procedure wherein a small volume of an active consortium is added to a “sterile” slurry bottle (in this case, autoclaved Tongue River coal and filter sterilized Tongue River formation water). The consortium is allowed to grow and metabolize, then the dilution series is repeated. This enrichment procedure appears to favor the growth of microorganisms more capable of metabolizing coal to methane. […] Very rapid methanogenesis was observed after the second transfer with rates 57 times greater on average relative to the parent samples (leftmost bars). The two exceptions to the trend were the last two sample sets on the far right of FIG. 13. These were cases in which methanogenesis was inhibited in the parental bottles intentionally with BESA and unintentionally in bottles that received solvent (pyridine) extracts of coal.

“Also recorded” adds a separate entry of the source.

In the case of `[HH]` [H2, hydrogen], the “effect on coal metabolism to methane” value in test [1] was “stimulated coal metabolism to methane”.
With `Cl.N` [ammonium chloride], in test [2] (25 mg/L nitrogen, FIG. 7), the “initial rate of methane production” value is “initially greater than for the unamended samples or samples with other types of amendments” and the peak methane level result is “exceeded the peak plateau levels in the unamended samples”. Moreover, the “methane level versus unamended samples / plateau” value in test [2] (about day 600, FIG. 7) was “about the same as those measured in the unamended samples”.
`O=P(O)(O)O` [potassium phosphate]: in test [2] (5 mg/L, after 600 days, FIG. 7), the “methane level higher than samples without phosphate” value is on record as “about 43%” and the “methane level in headspace” value is “about 4.3 mol. %”. Besides, in test [2] (just over 600 days, FIG. 8), the “methane concentration over time, rollover” value is reported as “no plateau was observed; also recorded: significantly higher methane levels than samples treated with a minerals amendment or the samples that were unamended”. Also, in test [3] (FIG. 14A), the “natural gas production rate relative to baseline period” value is “about double the average production rate during the baseline period”. Besides, the “natural gas production rate following treatment and dwell periods” value in test [3] (FIG. 14A, 9.5×10^−5 M, about 14,400 L/day for about 1.2 months, about 2 months dwell) was “over 9 mcf/day”. In addition, the “natural gas production rate following treatment” value in test [3] (FIG. 14B, declining formation) is “jump in the natural gas product rate”. Besides, in test [4], the “methane production, percentage of methane in headspace” value is “rates and yields of methanogenesis were highest”.
With `CC(=O)[O-].[Na+]` [sodium acetate], the “activation period before methane generation” value in test [5] was “about 65 days”. The “methane in the headspace of the sample bottle” value in test [5] (90th day) is recorded as “over 12 mol. %”.
As for `O=P(O)(O)O` [sodium phosphate], in test [6], the “methanogenesis, percentage of methane in headspace” value is listed as “comparable stimulation relative to more complex nutrient mixtures”. Also, in test [7] (FIG. 11A), the “rate of methanogenesis” value is on record as “highest rates of methanogenesis”. For the same molecule, the “acetate production” value in test [7] (FIG. 11B) is “stimulated acetate production relative to the unamended controls”.
With “bromoethanesulfonic acid [BESA, reference compound]”, in test [6], the “methanogenesis, percentage of methane in headspace” value is given as “below detection”. For the same molecule, in test [4], the “methane production, percentage of methane in headspace” value was “did not accumulate”. For the same molecule, the “methanogenesis in parental bottles” value in the test with methanogenic consortia was “inhibited”.

For the origin of these results see US7977282B2, “Chemical amendments for the stimulation of biogenic gas generation in deposits of carbonaceous material” (Luca Technologies, Inc., priority 2006, dated 2011).
